Each block holds one compound with its values, some of them ahead of it.
Experiments:
[1] = Drug metabolism in cynomolgus monkey assessed as 2-(6-carbamoyl-7-methoxyquinolin-4-ylamino)-3-(6-carbamoyl-7-methoxyquinolin-4-ylthio)propanoic acid metabolite level in liver at 30 mg/kg, po administered on day 1, 2 and 4 by radio-LC/MS analysis; type: ADME, organism-based, Macaca fascicularis; design: dose 30 mg/kg, route oral; details: in vivo
Cynomolgus monkey [2] = assay: Drug metabolism in cynomolgus monkey assessed as parent compound formation at 30 mg/kg, po administered on day 1, 2 and 4 by radio-LC/MS analysis; type: ADME, organism-based, Macaca fascicularis; design: dose 30 mg/kg, route oral; details: in vivo
[3] = Drug metabolism in cynomolgus monkey assessed as parent compound level in liver at 30 mg/kg, po administered on day 1, 2 and 4 by radio-LC/MS analysis; type: ADME, organism-based, Macaca fascicularis; design: dose 30 mg/kg, route oral; details: in vivo
[4] = Drug metabolism in cynomolgus monkey assessed as 5-(3-(6-carbamoyl-7-methoxyquinolin-4-ylthio)-1-(carboxymethylamino)-1-oxopropan-2-ylamino)-[…]-5-oxopentanoic acid metabolite level in liver at 30 mg/kg, po administered on day 1, 2 and 4 by radio-LC/MS analysis; type: ADME, organism-based, Macaca fascicularis; design: dose 30 mg/kg, route oral; details: in vivo
Cynomolgus monkey [5] = assay: Drug metabolism in cynomolgus monkey assessed as 2-(6-carbamoyl-7-methoxyquinolin-4-ylamino)-3-((2-(6-carbamoyl-7-methoxyquinolin-4-ylamino)-3-(carboxymethylamino)-3-oxopropyl)disulfanyl)propanoic acid formation at 30 mg/kg, po administered on day 1, 2 and 4 by radio-LC/MS analysis; type: ADME, organism-based, Macaca fascicularis; design: dose 30 mg/kg, route oral; details: in vivo
Cynomolgus monkey [6] = assay: Drug metabolism in cynomolgus monkey assessed as 2-(6-carbamoyl-7-methoxyquinolin-4-ylamino)-3-mercaptopropanoic acid formation at 30 mg/kg, po administered on day 1, 2 and 4 by radio-LC/MS analysis; type: ADME, organism-based, Macaca fascicularis; design: dose 30 mg/kg, route oral; details: in vivo
[7] = Drug metabolism in cynomolgus monkey assessed as 2-(6-carbamoyl-7-methoxyquinolin-4-ylamino)-3-mercaptopropanoic acid metabolite level in bile at 30 mg/kg, po administered on day 1, 2 and 4 by radio-LC/MS analysis; type: ADME, organism-based, Macaca fascicularis; design: dose 30 mg/kg, route oral; details: in vivo
[8] = Drug metabolism in cynomolgus monkey assessed as 2-(6-carbamoyl-7-methoxyquinolin-4-ylamino)-3-mercaptopropanoic acid metabolite level in liver at 30 mg/kg, po administered on day 1, 2 and 4 by radio-LC/MS analysis; type: ADME, organism-based, Macaca fascicularis; design: dose 30 mg/kg, route oral; details: in vivo
Cynomolgus monkey [9] = assay: Drug metabolism in cynomolgus monkey assessed as 2-(6-carbamoyl-7-methoxyquinolin-4-ylamino)-3-(6-carbamoyl-7-methoxyquinolin-4-ylthio)propanoic acid formation at 30 mg/kg, po administered on day 1, 2 and 4 by radio-LC/MS analysis; type: ADME, organism-based, Macaca fascicularis; design: dose 30 mg/kg, route oral; details: in vivo
[10] = Drug metabolism in cynomolgus monkey assessed as 2-(6-carbamoyl-7-methoxyquinolin-4-ylthio)acetic acid metabolite level in urine at 30 mg/kg, po administered on day 1, 2 and 4 by radio-LC/MS analysis; type: ADME, organism-based, Macaca fascicularis; design: dose 30 mg/kg, route oral; details: in vivo
[11] = Drug metabolism in cynomolgus monkey assessed as 3,3'-disulfanediylbis(2-(6-carbamoyl-7-methoxyquinolin-4-ylamino)propanoic acid) metabolite level in urine at 30 mg/kg, po administered on day 1, 2 and 4 by radio-LC/MS analysis; type: ADME, organism-based, Macaca fascicularis; design: dose 30 mg/kg, route oral; details: in vivo
Cynomolgus monkey [12] = assay: Drug metabolism in cynomolgus monkey assessed as 5-(3-(6-carbamoyl-7-methoxyquinolin-4-ylthio)-1-(carboxymethylamino)-1-oxopropan-2-ylamino)-[…]-5-oxopentanoic acid formation at 30 mg/kg, po administered on day 1, 2 and 4 by radio-LC/MS analysis; type: ADME, organism-based, Macaca fascicularis; design: dose 30 mg/kg, route oral; details: in vivo
[13] = Drug metabolism in cynomolgus monkey assessed as 3,3'-disulfanediylbis(2-(6-carbamoyl-7-methoxyquinolin-4-ylamino)propanoic acid) metabolite level in bile at 30 mg/kg, po administered on day 1, 2 and 4 by radio-LC/MS analysis; type: ADME, organism-based, Macaca fascicularis; design: dose 30 mg/kg, route oral; details: in vivo
[14] = Drug excretion in cynomolgus monkey feces assessed as unchanged level of drug at 30 mg/kg, po administered on day 1, 2 and 4 by radio-LC/MS analysis; type: ADME, organism-based, Macaca fascicularis; design: dose 30 mg/kg, route oral; details: read-out: Drug excretion
Cynomolgus monkey [15] = assay: Drug metabolism in cynomolgus monkey assessed as 3,3'-disulfanediylbis(2-(6-carbamoyl-7-methoxyquinolin-4-ylamino)propanoic acid) formation at 30 mg/kg, po administered on day 1, 2 and 4 by radio-LC/MS analysis; type: ADME, organism-based, Macaca fascicularis; design: dose 30 mg/kg, route oral; details: in vivo
[16] = Drug metabolism in cynomolgus monkey assessed as 2-(6-carbamoyl-7-methoxyquinolin-4-ylamino)-3-(6-carbamoyl-7-methoxyquinolin-4-ylthio)propanoic acid metabolite level in bile at 30 mg/kg, po administered on day 1, 2 and 4 by radio-LC/MS analysis; type: ADME, organism-based, Macaca fascicularis; design: dose 30 mg/kg, route oral; details: in vivo
Cynomolgus monkey [17] = assay: Drug metabolism in cynomolgus monkey assessed as 2-(6-carbamoyl-7-methoxyquinolin-4-ylthio)acetic acid formation at 30 mg/kg, po administered on day 1, 2 and 4 by radio-LC/MS analysis; type: ADME, organism-based, Macaca fascicularis; design: dose 30 mg/kg, route oral; details: in vivo
Plasma = assay: Drug metabolism in cynomolgus monkey assessed as parent compound level in plasma at 30 mg/kg, po administered on day 1, 2 and 4 by radio-LC/MS analysis; type: ADME, organism-based, Macaca fascicularis; design: dose 30 mg/kg, route oral; details: in vivo
[18] = Drug metabolism in cynomolgus monkey assessed as parent compound level in bile at 30 mg/kg, po administered on day 1, 2 and 4 by radio-LC/MS analysis; type: ADME, organism-based, Macaca fascicularis; design: dose 30 mg/kg, route oral; details: in vivo
[19] = Drug metabolism in cynomolgus monkey assessed as 2-(6-carbamoyl-7-methoxyquinolin-4-ylamino)-3-((2-(6-carbamoyl-7-methoxyquinolin-4-ylamino)-3-(carboxymethylamino)-3-oxopropyl)disulfanyl)propanoic acid metabolite level in urine at 30 mg/kg, po administered on day 1, 2 and 4 by radio-LC/MS analysis; type: ADME, organism-based, Macaca fascicularis; design: dose 30 mg/kg, route oral; details: in vivo
[20] = Drug metabolism in cynomolgus monkey assessed as 2-(6-carbamoyl-7-methoxyquinolin-4-ylamino)-3-(6-carbamoyl-7-methoxyquinolin-4-ylthio)propanoic acid metabolite level in urine at 30 mg/kg, po administered on day 1, 2 and 4 by radio-LC/MS analysis; type: ADME, organism-based, Macaca fascicularis; design: dose 30 mg/kg, route oral; details: in vivo
Cynomolgus monkey [21] = assay: Drug retention time in cynomolgus monkey treated with 30 mg/kg, po of [14C]lenvatinib administered on day 1, 2 and 4 by radio-LC/MS analysis; type: ADME, organism-based, Macaca fascicularis; design: dose 30 mg/kg, route oral; details: in vivo
Cynomolgus monkey [22] = assay: Drug metabolism in cynomolgus monkey treated with 30 mg/kg, po of [14C]lenvatinib administered on day 1, 2 and 4 by radio-LC/MS analysis; type: ADME, organism-based, Macaca fascicularis; design: dose 30 mg/kg, route oral; details: in vivo
[23] = Drug metabolism in Sprague-Dawley rat liver S9 fraction treated with 50 uM of lenvatinib up to 60 mins by HPLC analysis in presence of GSH and NADPH; details: s9, 1 h
[24] = Drug metabolism in human liver S9 fraction treated with 50 uM of lenvatinib up to 120 mins by HPLC analysis in presence of GSH and absence of NADPH; type: ADME; details: s9, 2 h
[25] = Drug metabolism in Sprague-Dawley rat liver S9 fraction treated with 50 uM of lenvatinib up to 60 mins by HPLC analysis in presence of GSH and absence of NADPH; details: s9, 1 h
[26] = Drug metabolism in cynomolgus monkey liver S9 fraction treated with 50 uM of lenvatinib up to 120 mins by HPLC analysis in presence of GSH and NADPH; type: ADME, subcellular, Macaca fascicularis; details: s9, 2 h
[27] = Drug metabolism in cynomolgus monkey liver S9 fraction treated with 50 uM of lenvatinib up to 120 mins by HPLC analysis in presence of GSH and absence of NADPH; type: ADME, Macaca fascicularis; details: s9, 2 h
[28] = Drug metabolism in human liver S9 fraction treated with 50 uM of lenvatinib up to 120 mins by HPLC analysis in presence of GSH and NADPH; type: ADME, subcellular; details: s9, 2 h

- Drug metabolism [1]: metabolite_detected
- Drug metabolism (Cynomolgus monkey [2]): metabolite_detected
- Drug metabolism [3]: metabolite_detected
- Drug metabolism [4]: metabolite_detected
- Drug metabolism (Cynomolgus monkey [5]): metabolite_detected
- Drug metabolism (Cynomolgus monkey [6]): metabolite_detected
- Drug metabolism [7]: metabolite_detected
- Drug metabolism [8]: metabolite_detected
- Drug metabolism (Cynomolgus monkey [9]): metabolite_detected
- Drug metabolism [10]: metabolite_detected
- Drug metabolism [11]: metabolite_detected
- Drug metabolism (Cynomolgus monkey [12]): metabolite_detected
- Drug metabolism [13]: metabolite_detected
- dose excreted [14]: 51%
- Drug metabolism (Cynomolgus monkey [15]): metabolite_detected
- Drug metabolism [16]: metabolite_detected
- Drug metabolism (Cynomolgus monkey [17]): metabolite_detected
- Drug metabolism (Plasma): metabolite_detected
- Drug metabolism [18]: metabolite_detected
- Drug metabolism [19]: metabolite_detected
- Drug metabolism [20]: metabolite_detected
Structure (SMILES): COc1cc2n[14cH]cc(Oc3ccc(NC(=O)NC4CC4)c(Cl)c3)c2cc1C(N)=O.CS(=O)(=O)O

- Retention_time (Cynomolgus monkey [21]): 14.1 min
- Drug metabolism (Cynomolgus monkey [22]): metabolite_detected
Structure (SMILES): COc1cc2nccc(N[C@@H](CSSC[C@H](Nc3ccnc4cc(OC)c(C(N)=O)cc34)C(=O)NCC(=O)O)C(=O)O)c2cc1C(N)=O

- Retention_time (Cynomolgus monkey [21]): 12.2 min
- Drug metabolism (Cynomolgus monkey [22]): metabolite_detected
Structure (SMILES): COc1cc2nccc(SCC(=O)O)c2cc1C(N)=O

- Drug metabolism [23]: metabolite_detected
- Drug metabolism [24]: metabolite_detected
- Retention_time (Cynomolgus monkey [21]): 13.1 min
- Drug metabolism [25]: metabolite_detected
- Drug metabolism [26]: metabolite_detected
- Drug metabolism [27]: metabolite_detected
- Drug metabolism (Cynomolgus monkey [22]): metabolite_detected
- Drug metabolism [28]: metabolite_detected
Structure (SMILES): COc1cc2nccc(SC[C@H](NC(=O)CC[C@H](N)C(=O)O)C(=O)NCC(=O)O)c2cc1C(N)=O
